Assay results taken from US7902218B2, “Substituted tetrahydroisoquinolines as β-secretase inhibitors” (Bristol-Myers Squibb Company, priority 2006, dated 2011).

What follows are molecules tested against T1, BACE1 enzyme (Homo sapiens, UniProt P56817) (assay: Radioligand displacement assay with a radiolabeled BACE inhibitor, HEK293-9B.A1 cell homogenate). Conditions: not given.
T1 construct: which overexpresses the BACE1 enzyme, was derived from HEK293 cells; endogenous in cells; washed 48,000 x g pellet of the cell homogenate
Assay type: binding
Excerpt: There are a number of methods by which inhibitors of the BACE enzyme can be identified experimentally. The enzyme can be obtained from membrane samples from natural tissues or cultured cells or can be expressed recombinantly in a host cell by well known methods of molecular biology. […] The enzymatic activity and/or ligand binding capability of the enzyme can be assessed within these membrane samples, or the enzyme can be purified to varying extents. As an illustrative example, the nucleic acid sequence encoding the pro and catalytic domains of human BACE can be appended on the 5′ end with an untranslated and signal sequence from the gene for acetylcholinesterase, and on the 3′ end with a sequence encoding a poly-histidine tag. This cDNA can then be expressed in Drosophila melanogaster S2 cells in which the signal and pro sequences of the transcribed/translated protein are removed by cellular proteases and the catalytic domain, appended by a C-terminal poly-histidine tag, is secreted out into the cellular medium. The enzyme can then be purified from the culture medium by nickel affinity chromatography by methods well known to those trained in the art [Mallender, W. et al., “Characterization of recombinant, soluble beta-secretase from an insect cell expression system.” Mol. Pharmacol. 2001, 59: 619-626]. Similar strategies for expressing and purifying various forms of BACE in bacterial, mammalian and other cell types would be known to one skilled in the art.
Radioligand displacement assays with a radiolabeled BACE inhibitor (WO 2004 013098, compound 3, where the methoxy group is substituted for C(^3H)3) were carried out using standard methods (Keen, M. (1999) in Receptor Binding Techniques (Walker, J. M. ed) p. 106 Humana Press, Totowa, N.J.). The HEK293-9B.A1 cell line, which overexpresses the BACE1 enzyme, was derived from HEK293 cells (Simmons, N. L. (1990) A cultured human renal epithelioid cell line responsive to vasoactive intestinal peptide. Exp. Physiol. 75:309-19.) by RAGE™ (Harrington, J. J. et al. (2001) Creation of genome-wide protein expression libraries using random activation of gene expression. Nat. Biotechnol. 19:440-5.; U.S. Pat. Nos. 6,410,266 and 6,361,972). T225 flask cultures of HEK293-9B.A1 were grown to 80% confluency in DMEM supplemented with 2 mM L-glutamine, 10 μg/ml penecillin, 10 μg/ml streptomycin, 3 μg/ml puromycin, 100 nM methotrexate, and 10% fetal bovine serum (Invitrogen, Carlsbad, Calif.), harvested, and resuspended at 2×10^8 cells per 10 ml of lysis buffer consisting of 50 mM HEPES pH 7.0 containing a protease inhibitor cocktail of AEBSF 104 μM, aprotinin 80 nM, leupeptin 2 μM, bestatin 4 μM, pepstatin A 1.5 μM, and E-64 1.4 μM (0.1% of protease inhibitor cocktail P8340, Sigma-Aldrich, St. Louis, Mo.) at 4° C. The resuspended cells were homogenized using a Polytron (Brinkman, Westbury, N.Y.) at setting 6 for 10 sec., then centrifuged at 48,000×g for 10 min. The resulting pellet was washed by repeating the resuspension, homogenization and centrifugation steps. The final pellet was resuspended in buffer at 4° C. to yield a total protein concentration of 5 mg/ml, then aliquots were frozen in liquid nitrogen for further storage at −70° C. Immediately before carrying out a binding assay, an aliquot of cell homogenate was thawed and diluted to a concentration of 100 μg/ml in assay buffer consisting of 50 mM HEPES pH 5.0 and 0.1% CHAPSO. Assays were initiated in polypropylene 96-well plates (Costar, Cambridge, Mass.) by the addition of 200 μl of cell homogenate to 50 μl of assay buffer containing 1 nM radioligand (WO 2004 013098, compound 3, where the methoxy group is substituted for C(^3H)3: 80 Ci/mMol) and various concentrations of unlabelled compounds, and incubated for 1.5 hr. at 25° C. Separation of bound from free radioligand was by filtration on GFF glass fiber filters (Innotech Biosystems International, Lansing, Mich.) using an Innotech cell harvester.

T1 sequence (P56817 46-501): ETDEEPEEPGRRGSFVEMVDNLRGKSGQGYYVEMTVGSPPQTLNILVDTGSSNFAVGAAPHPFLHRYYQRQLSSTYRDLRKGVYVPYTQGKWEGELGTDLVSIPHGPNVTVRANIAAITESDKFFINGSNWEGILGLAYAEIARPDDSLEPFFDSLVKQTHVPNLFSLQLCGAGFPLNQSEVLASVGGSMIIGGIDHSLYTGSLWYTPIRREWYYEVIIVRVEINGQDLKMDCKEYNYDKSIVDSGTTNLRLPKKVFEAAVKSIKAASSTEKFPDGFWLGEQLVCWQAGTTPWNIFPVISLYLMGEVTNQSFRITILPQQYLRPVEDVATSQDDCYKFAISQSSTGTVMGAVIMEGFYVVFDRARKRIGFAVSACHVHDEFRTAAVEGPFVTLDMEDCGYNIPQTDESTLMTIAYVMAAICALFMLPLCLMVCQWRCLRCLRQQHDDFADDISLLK

Row | SMILES | IC50 [nM]
1 | CCCCN(C)C(=O)n1cc(C(=O)N[C@@H](Cc2cc(F)cc(F)c2)[C@H](O)C2Cc3ccccc3CN2)c2cccnc21 (stereo partly drawn) [Example 8, N^1-Butyl-N^3-((1R,2S)-3-(3,5-difluorophenyl)-1-hydroxy-1-(1,2,3,4-tetrahydroisoquinolin-3-yl)propan-2-yl)-N^1-methyl-1H-pyrrolo[2,3-b]pyridine-1,3-dicarboxamide] | > 1000

Same assay, conditions: displacement of 1 nM tritiated radioligand, HEK293-9B.A1 homogenate, pH 5.0, 1.5 hr at 25° C.; read-out: Activity Rating (Activity based on IC50 values)

Row | SMILES | IC50 [nM]
2 | CCC(C)[C@@]1(NC(C)=O)CCN([C@@H](CCc2ccccc2)C(=O)N[C@@H](Cc2cc(F)cc(F)c2)[C@H](O)[C@@H]2Cc3ccccc3CN2)C1=O (stereo in doubt) [Example 2, (S)-2-((S)-3-Acetamido-3-((R)-sec-butyl)-2-oxopyrrolidin-1-yl)-N-((1R,2S)-3-(3,5-difluorophenyl)-1-hydroxy-1-((S)-1,2,3,4-tetrahydroisoquinolin-3-yl)propan-2-yl)-4-phenylbutanamide] | 10 to 1000
3 | CCC(C)[C@@]1(NC(C)=O)CCN([C@@H](CCc2ccccc2)C(=O)N[C@@H](Cc2cc(F)cc(F)c2)[C@H](O)C2Cc3cccc(OC)c3CN2)C1=O (stereo partly drawn) [Example 7, (2S)-2-((S)-3-Acetamido-3-sec-butyl-2-oxopyrrolidin-1-yl)-N-((1R,2S)-3-(3,5-difluorophenyl)-1-hydroxy-1-(8-methoxy-1,2,3,4-tetrahydroisoquinolin-3-yl)propan-2-yl)-4-phenylbutanamide] | < 10
4 | CCC(C)[C@@]1(NC(C)=O)CCN([C@@H](CCc2ccccc2)C(=O)N[C@@H](Cc2cc(F)cc(F)c2)[C@H](O)[C@H]2Cc3ccccc3CN2)C1=O (stereo in doubt) [Example 1, (S)-2-((S)-3-Acetamido-3-((R)-sec-butyl)-2-oxopyrrolidin-1-yl)-N-((1R,2S)-3-(3,5-difluorophenyl)-1-hydroxy-1-((R)-1,2,3,4-tetrahydroisoquinolin-3-yl)propan-2-yl)-4-phenylbutanamide] | < 10
5 | CCCC[C@H]1CCN([C@@H](C)C(=O)N[C@@H](Cc2cc(F)cc(F)c2)[C@H](O)[C@H]2Cc3ccccc3CN2)C1=O [Example 5, (S)-2-((S)-3-Butyl-2-oxopyrrolidin-1-yl)-N-((1R,2S)-3-(3,5-difluorophenyl)-1-hydroxy-1-((R)-1,2,3,4-tetrahydroisoquinolin-3-yl)propan-2-yl)propanamide] | > 1000
6 | CCCOc1cccc2c1CN[C@@H]([C@@H](O)[C@H](Cc1cc(F)cc(F)c1)NC(=O)[C@H](CCc1ccccc1)N1CC[C@](NC(C)=O)([C@H](C)CC)C1=O)C2 [Example 3, (S)-2-((S)-3-Acetamido-3-((R)-sec-butyl)-2-oxopyrrolidin-1-yl)-N-((1R,2S)-3-(3,5-difluorophenyl)-1-hydroxy-1-((R)-8-propoxy-1,2,3,4-tetrahydroisoquinolin-3-yl)propan-2-yl)-4-phenylbutanamide] | < 10
7 | CC(=O)N[C@]1(CC(C)C)CCN([C@@H](CCc2ccccc2)C(=O)N[C@@H](Cc2cc(F)cc(F)c2)[C@H](O)[C@H]2Cc3ccccc3CN2)C1=O [Example 6, (S)-2-((R)-3-Acetamido-3-isobutyl-2-oxopyrrolidin-1-yl)-N-((1R,2S)-3-(3,5-difluorophenyl)-1-hydroxy-1-((R)-1,2,3,4-tetrahydroisoquinolin-3-yl)propan-2-yl)-4-phenylbutanamide] | < 10
8 | CCCC[C@H]1CCN([C@@H](CCc2ccccc2)C(=O)N[C@@H](Cc2cc(F)cc(F)c2)[C@H](O)[C@H]2Cc3ccccc3CN2)C1=O [Example 4] | > 1000
